Measured values taken from ChEMBL document CHEMBL1201862, “PubChem BioAssay data set” (2004).
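Cultured in 96-well plates, cells were exposed to test compound for 48 hours across five concentrations. GI50 is the concentration that inhibits growth by half.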 Activity calls are given as the source filed them. No stated cut-off is given here; in the data, active = GI50 up to about 1.1 µM and inactive = higher.

Columns and labels:
Test in all cases: NCI anticancer screen, dose series, 48 h
[1] = tested on: A549
[2] = tested on: BT-549
[3] = tested on: COLO 205
[4] = tested on: HL-60
[5] = tested on: HOP-92
[6] = tested on: HT-29
[7] = tested on: IGROV-1
[8] = tested on: KM12
[9] = tested on: MCF7
[10] = tested on: MDA-MB-231
[11] = tested on: NCI-H460
[12] = tested on: NCI-H522
[13] = tested on: NCI/ADR-RES
[14] = tested on: OVCAR-4
[15] = tested on: OVCAR-8
[16] = tested on: PC-3
[17] = tested on: SF-295
[18] = tested on: SF-539
[19] = tested on: SK-MEL-28
[20] = tested on: SK-MEL-2
[21] = tested on: SK-MEL-5
[22] = tested on: SN12C
[23] = tested on: SNB-19
[24] = tested on: TK-10
[25] = tested on: UACC-257
[26] = tested on: UACC-62
[27] = tested on: UO-31
[28] = tested on: 786-0
[29] = tested on: ACHN
[30] = tested on: CAKI-1
[31] = tested on: CCRF-CEM
[32] = tested on: DU-145
[33] = tested on: EKVX
[34] = tested on: HCC 2998
[35] = tested on: HCT-116
[36] = tested on: HOP-62
[37] = tested on: K562
[38] = tested on: LOX IMVI
[39] = tested on: M14
[40] = tested on: MDA-MB-435
[41] = tested on: MOLT-4
[42] = tested on: Malme-3M
[43] = tested on: NCI-H226
[44] = tested on: NCI-H23
[45] = tested on: OVCAR-5
[46] = tested on: RPMI-8226
[47] = tested on: SF-268
[48] = tested on: SNB-75
[49] = tested on: SR
[50] = tested on: SW-620
[51] = tested on: U-251

SMILES: Cc1cn2c(/C=N/NC(=N)N)c(-c3cc([N+](=O)[O-])c(Cl)cc3Cl)nc2s1
- GI50 [1]: 4.06 µM (inactive)
- GI50 [2]: 2.51 µM (inactive)
- GI50 [3]: 0.55 µM (active)
- GI50 [4]: 1.61 µM (inactive)
- GI50 [5]: 3.32 µM (inactive)
- GI50 [6]: 1.13 µM (inactive)
- GI50 [7]: 1.8 µM (inactive)
- GI50 [8]: 0.455 µM (active)
- GI50 [9]: 0.49 µM (active)
- GI50 [10]: 2.4 µM (inactive)
- GI50 [11]: 2.29 µM (inactive)
- GI50 [12]: 1.47 µM (inactive)
- GI50 [13]: > 100 µM (inactive)
- GI50 [14]: 1.91 µM (inactive)
- GI50 [15]: 2.63 µM (inactive)
- GI50 [16]: 2.34 µM (inactive)
- GI50 [17]: 2.08 µM (inactive)
- GI50 [18]: 2.52 µM (inactive)
- GI50 [19]: 2.22 µM (inactive)
- GI50 [20]: 2.35 µM (inactive)
- GI50 [21]: 2.77 µM (inactive)
- GI50 [22]: 2.24 µM (inactive)
- GI50 [23]: 1.87 µM (inactive)
- GI50 [24]: 2.3 µM (inactive)
- GI50 [25]: 2.24 µM (inactive)
- GI50 [26]: 1.98 µM (inactive)
- GI50 [27]: 1.83 µM (inactive)

SMILES: CN(C)CCCNC(=O)c1cc(NC(=O)c2cc(NC(=O)[C@@H]3C[C@H]3C(=O)Nc3cc(C(=O)Nc4cc(C(=O)NCCCN(C)C)n(C)c4)n(C)c3)cn2C)cn1C
- GI50 [28]: > 100 µM (inactive)
- GI50 [1]: > 100 µM (inactive)
- GI50 [29]: > 100 µM (inactive)
- GI50 [2]: > 100 µM (inactive)
- GI50 [30]: > 100 µM (inactive)
- GI50 [31]: > 100 µM (inactive)
- GI50 [3]: > 100 µM (inactive)
- GI50 [32]: > 100 µM (inactive)
- GI50 [33]: > 100 µM (inactive)
- GI50 [34]: 20.9 µM (inactive)
- GI50 [35]: > 100 µM (inactive)
- GI50 [4]: > 100 µM (inactive)
- GI50 [36]: > 100 µM (inactive)
- GI50 [5]: > 100 µM (inactive)
- GI50 [6]: > 100 µM (inactive)
- GI50 [7]: > 100 µM (inactive)
- GI50 [37]: > 100 µM (inactive)
- GI50 [8]: > 100 µM (inactive)
- GI50 [38]: > 100 µM (inactive)
- GI50 [39]: > 100 µM (inactive)
- GI50 [9]: > 100 µM (inactive)
- GI50 [10]: > 100 µM (inactive)
- GI50 [40]: > 100 µM (inactive)
- GI50 [41]: > 100 µM (inactive)
- GI50 [42]: > 100 µM (inactive)
- GI50 [43]: > 100 µM (inactive)
- GI50 [44]: > 100 µM (inactive)
- GI50 [11]: > 100 µM (inactive)
- GI50 [12]: > 100 µM (inactive)
- GI50 [13]: > 100 µM (inactive)
- GI50 [14]: > 100 µM (inactive)
- GI50 [45]: > 100 µM (inactive)
- GI50 [15]: > 100 µM (inactive)
- GI50 [16]: > 100 µM (inactive)
- GI50 [46]: > 100 µM (inactive)
- GI50 [47]: > 100 µM (inactive)
- GI50 [17]: > 100 µM (inactive)
- GI50 [18]: > 100 µM (inactive)
- GI50 [19]: > 100 µM (inactive)
- GI50 [20]: > 100 µM (inactive)
- GI50 [21]: > 100 µM (inactive)
- GI50 [22]: > 100 µM (inactive)
- GI50 [23]: > 100 µM (inactive)
- GI50 [48]: > 100 µM (inactive)
- GI50 [49]: > 100 µM (inactive)
- GI50 [50]: > 100 µM (inactive)
- GI50 [51]: > 100 µM (inactive)
- GI50 [25]: > 100 µM (inactive)
